Reference: patent publication US20250171430A1, “PYRAZOLYL COMPOUNDS AS KV7 CHANNEL ACTIVATORS” (Biohaven Therapeutics Ltd., priority 2022, published 2025)

Target: T1, Kv7.2/7.3 (Homo sapiens, UniProt O43525+O43526)
T1 construct: Kv7.2 tetracycline-induced, Kv7.3 constitutive
Test: Kv7.2/7.3 Activation Assay (Thallium Flux Assay)
Type: cell-based
Details: hKV7.2/7.3 cell line; test compound at single concentration of 10 μM; fluorescence at 90 sec normalized to positive control (retigabine, 30 μM)
Summary of the method: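 Human Kv7.2/7.3 cells with Kv7.2 induced overnight by 10 ng/mL tetracycline were loaded with FluxOR II Green for 1 h at 37 °C. Compounds were tested at 10 μM in 0.1% DMSO/extracellular solution, pH 7.4. Thallium/potassium stimulus was added after a 15 s baseline, and 90 s fluorescence (ex 475/em 530 nm) was normalized to 30 μM retigabine.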

SMILES | Kv7.2/7.3 Activity
Cn1nc(NC(=O)NCC(C)(C)C)c(C2CCC2)c1C1CC(F)(F)C1 [Compound 294, 1-(4-cyclobutyl-5-(3,3-difluorocyclobutyl)-1-methyl-1H-pyrazol-3-yl)-3-neopentylurea] | ++ (“++” High Activity ≥ 0.7)
Cn1nc(NC(=O)[C@H]2CC2(F)F)c(C2CCC2)c1-c1cnc(C(F)(F)F)s1 [Compound 298, (R)-N-(4-cyclobutyl-1-methyl-5-(2-(trifluoromethyl)thiazol-5-yl)-1H-pyrazol-3-yl)-2,2-difluorocyclopropane-1-carboxamide] | − (“−” No Activity < 0.15)

Further lines, results first:

Kv7.2/7.3 Activity | SMILES
++ (“++” High Activity ≥ 0.7) | Cn1nc(NC(=O)OC2CCC2)c(C2CCC2)c1C1CC(F)(F)C1 [Compound 295, cyclobutyl (4-cyclobutyl-5-(3,3-difluorocyclobutyl)-1-methyl-1H-pyrazol-3-yl)carbamate]
++ (“++” High Activity ≥ 0.7) | Cn1nc(NC(=O)NCC(F)F)c(C2CCC2)c1C1CC(F)(F)C1 [Compound 296, 1-(4-cyclobutyl-5-(3,3-difluorocyclobutyl)-1-methyl-1H-pyrazol-3-yl)-3-(2,2-difluoroethyl)urea]
++ (“++” High Activity ≥ 0.7) | Cn1nc(NC(=O)NCC2CC(F)(F)C2)c(C2CCC2)c1C1CC(F)(F)C1 [Compound 297, 1-(4-cyclobutyl-5-(3,3-difluorocyclobutyl)-1-methyl-1H-pyrazol-3-yl)-3-((3,3-difluorocyclobutyl)methyl)urea]
